Data taken from patent publication US20240382564A1, “Methods and Compositions for Treating Muscular Dystrophy and Memory Impairment” (Allysta Pharmaceuticals, Inc., priority 2023, published 2024).
Entries after “also recorded” stand apart in the source; their conditions may differ. Where no end group is shown, it is not given here. [ ]: non-standard residue; d: D form. Nva = CCC[C@H](N)C(=O)O

Assays:
D2.mdx mice [1] = experiment: Novel object recognition test; format: in vivo, mouse; conditions: 15 mg/kg b.w. daily, days 7 to 28 of age
Experimental: Male D2.mdx mice originated from a colony maintained at York University (Toronto, Canada) and sourced from Jackson Laboratories (Stock Number 013141, Bar Harbor, United States). Mice were treated daily from days 7 to 28 of age with ALY688 at 15 mg/kg b.w. (D2.mdx-ALY688) or saline control (D2.mdx-VEH). This age was chosen given it captures an early stage of disease progression in cardiac and skeletal muscle. Mice were sacrificed 20-24 hr after the last dose. Breeding of wildtype mice was unsuccessful. Instead, three-week-old wildtype DBA/2J WT mice (D2A) were obtained from Jackson Laboratories (Stock number 000671, Bar Harbor, United States) and allowed to acclimatize for one week before sacrifice. Mice were housed in standard 12:12-hr light:dark cycles and were allowed access to standard rodent chow and water ad libitum. 4 days prior to sacrifice, all groups underwent novel object recognition acclimatization and testing as described below. Mice were anesthetized under 5% isoflurane vaporized in medical air (21% oxygen) at a flow rate of 2 L/min and then maintained at 2-3% prior to euthanasia by exsanguination. […]
The novel object recognition test (NOR) was performed as previously described in literature. […] Sessions were recorded with a cell-phone video camera secured above the apparatus. […] Discrimination ratio (DR) was calculated as follows: DR=(Time(object 2)−Time(object 1))/Total time.

D2.mdx mice [2] = experiment: Fibre-type specific minimal Feret's diameter (muscle atrophy), myosin heavy chain immunofluorescence; format: in vivo, mouse
Experimental: D2.mdx mice were treated with ALY688 at two different dosages; high dose (HD; 15 mg/kg body weight/day) or low dose (LD; 3 mg/kg body weight/day) dissolved in saline. A separate group of mice were treated with saline alone (VEH, vehicle). Treatment was provided via subscapular subcutaneous injections from 7 days of age to 28-30 days. […] At 28-30 days of age, mice were anaesthetized with isoflurane vaporized in medical air (21% oxygen) at a 2 L/min flow rate. Due to tissue limitations in limb muscle, certain measures were performed separately in tibialis anterior and quadriceps across several phases of breeding. Following the treatment protocol, in situ quadriceps force assessments were then performed in one limb followed by removal of the quadriceps from the other limb for mitochondrial assessments, diaphragm for in vitro force assessments and finally other tissues for further processing as described below. Muscle and visceral organs weights were normalized to tibia length. Tissue collected from the first phase were utilized in force, histological, mitochondrial measures (respiration, mH2O2 and calcium retention capacity) and western analyses (diaphragm and quadriceps only). A second phase was then collected and utilized for cytokine profiling, qPCR analyses and additional westerns (TA only). Serum was collected from both phase 1 and 2 and utilized for serum CK analysis. All animals were utilized in in vivo functional assays (grip strength, cage hang time and voluntary wheel running).
Samples collected were cut into 8 µm thick serial cross sections with a cryostat (Thermo Fisher Scientific; Kalamazoo, MI, United States;) maintained at −20° C. on Fisherbrand Superfrost Plus slides (Thermo Fisher Scientific). Hematoxylin and eosin (H&E) and Masson's trichrome staining was used to assess muscle health and fibrosis. Centralized nuclei, a marker of regenerating fibres, was analyzed by selecting five evenly spaced images throughout the muscle and averaging the result. Areas of damage (fibres with fragmented sarcoplasm and immune cell infiltration) were expressed as a percentage of the entire muscle section. Images were taken using EVOS M7000 imager (Thermo Fisher Scientific) using 20× magnification and analyzed using ImageJ (http://imagej.nih.gov/ij/). To determine fibrotic area, skeletal muscle sections were stained with Masson's Trichrome (fibrotic regions stain blue for collagen) and expressed as a percentage of a region of interest, which included the entire muscle section with any artifacts removed. Sections were imaged Nikon 90i-eclipse microscope (Nikon Inc., Melville, NY) and analysed with the NIS Elements AR software (v4.6, Nikon). […] These images were then analyzed with ImageJ for minimal Feret's diameter as an index of muscle atrophy.

Substance: [dN]IP[Nva]LY[dS]FA[dS]-NH2 [ALY688]
- recognition memory (discrimination index, NOR test) (D2.mdx mice [1]): completely prevented; also recorded: improved recognition memory; also recorded: normalized
- atrophy in MHC I fibers (minimal feret diameter) (D2.mdx mice [2]; diaphragm, HD 15 mg/kg/day): completely prevented atrophy
- minimal feret diameter, IIA fibers (D2.mdx mice [2]; diaphragm, HD, WT 24, VEH 20): 22 μm
- minimal feret diameter, IIB fibers (D2.mdx mice [2]; diaphragm, HD, WT 26, VEH 23): 24 μm
- minimal feret diameter in any fiber type (D2.mdx mice [2]; tibialis anterior, between the groups): no differences
